Target: mTOR/GbL/Raptor (mTORC1) (Homo sapiens, UniProt P42345)
Assay: mTOR/GbL/Raptor (mTORC1) ELISA assay
Type: biochemical
Conditions: phosphorylation of 4E-BP1; 0.2 nM mTORC1, 10 μM ATP; read-out: IC50 in this assay (mTORC1 ELISA)
Summary of the method: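 ELISA read-out: phospho-4E-BP1 captured on Ni-chelate plates and detected with anti-phospho antibody plus HRP-anti-IgG luminescence. The kinase step ran 120 min at ambient temperature with 0.2 nM human mTORC1, 10 µM ATP, 50 nM His-4E-BP1, 10 mM MnCl2, pH 7.2 HEPES.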

| Compound | IC50 |
| --- | --- |
| Cc1ncnc(N2CCOc3ccc(-c4ccc(-c5ncc[nH]5)cc4)cc3C2)c1Cc1ccc(F)cc1 [Example 131, 4-{5-[(4-fluorophenyl)methyl]-6-methylpyrimidin-4-yl}-7-[4-(1H-imidazol-2-yl)phenyl]-2,3,4,5-tetrahydro-1,4-benzoxazepine] | ≤ 0.01 µM |
| CN(C)Cc1nc2ncc(-c3ccc4c(c3)CN(c3ncnc5c3CC(C)(C)CC5)CCO4)cc2[nH]1 [Example 357, 1-{6-[4-(6,6-dimethyl-5,6,7,8-tetrahydroquinazolin-4-yl)-2,3,4,5-tetrahydro-1,4-benzoxazepin-7-yl]-1H-imidazo[4,5-b]pyridin-2-yl}-N,N-dimethylmethanamine] | 0.25 to 1 µM |
| CNc1ncc(-c2ccc3c(c2)CN(c2ncnc4c2CC(C)(C)CC4)CCO3)cc1S(=O)(=O)NCCO [Example 520, 5-[4-(6,6-dimethyl-5,6,7,8-tetrahydroquinazolin-4-yl)-2,3,4,5-tetrahydro-1,4-benzoxazepin-7-yl]-N-(2-hydroxyethyl)-2-(methylamino)pyridine-3-sulfonamide] | ≤ 0.01 µM |
| CCNc1nc2ccc(-c3ccc4c(c3)CN(c3nc(C)nc5cc(OC)c(OC)cc35)CCO4)cc2[nH]1 [Example 271, N-ethyl-6-{4-[2-methyl-6,7-bis(methyloxy)quinazolin-4-yl]-2,3,4,5-tetrahydro-1,4-benzoxazepin-7-yl}-1H-benzimidazol-2-amine] | 0.25 to 1 µM |
| Cc1nc2c(c(N3CCOc4ccc(-c5cnc(N)c(S(=O)(=O)NCC6CCN(C)CC6)c5)cc4C3)n1)CC(C)(C)CC2 [Example 419, 2-amino-N-[(1-methylpiperidin-4-yl)methyl]-5-[4-(2,6,6-trimethyl-5,6,7,8-tetrahydroquinazolin-4-yl)-2,3,4,5-tetrahydro-1,4-benzoxazepin-7-yl]pyridine-3-sulfonamide] | 0.25 to 1 µM |
| CC1(C)CCc2ncnc(N3CCOc4ccc(-c5cnc(N)c(S(=O)(=O)NCC(O)CO)c5)cc4C3)c2C1 (stereo not shown) [Example 402, 2-amino-N-(2,3-dihydroxypropyl)-5-[4-(6,6-dimethyl-5,6,7,8-tetrahydroquinazolin-4-yl)-2,3,4,5-tetrahydro-1,4-benzoxazepin-7-yl]pyridine-3-sulfonamide] | ≤ 0.01 µM |
| CCNc1nc2ccc(-c3ccc4c(c3)CN(c3ncnc(C)c3Cc3ccc(F)cc3)CCO4)cc2[nH]1 [Example 192, N-ethyl-6-(4-{5-[(4-fluorophenyl)methyl]-6-methylpyrimidin-4-yl}-2,3,4,5-tetrahydro-1,4-benzoxazepin-7-yl)-1H-benzimidazol-2-amine] | ≤ 0.01 µM |
| Cc1nc2c(F)c(-c3ccc4c(c3)CN(c3nc(CN(C)C)nc5c3CC(C)(C)CC5)CCO4)ccc2[nH]1 [Example 341, 1-{4-[7-(4-fluoro-2-methyl-1H-benzimidazol-5-yl)-2,3-dihydro-1,4-benzoxazepin-4(5H)-yl]-6,6-dimethyl-5,6,7,8-tetrahydroquinazolin-2-yl}-N,N-dimethylmethanamine] | 0.25 to 1 µM |
| Cc1nc(N)nc(N2CCOc3ccc(-c4cnc5[nH]cnc5c4)cc3C2)c1Cc1ccc(F)cc1 [Example 689, 5-[(4-fluorophenyl)methyl]-4-[7-(3H-imidazo[4,5-b]pyridin-6-yl)-2,3-dihydro-1,4-benzoxazepin-4(5H)-yl]-6-methylpyrimidin-2-amine] | ≤ 0.01 µM |
| CC(C)(N)CCNS(=O)(=O)c1cc(-c2ccc3c(c2)CN(c2ncnc4c2CC(C)(C)CC4)CCO3)cnc1N [Example 413, 2-amino-N-(3-amino-3-methylbutyl)-5-[4-(6,6-dimethyl-5,6,7,8-tetrahydroquinazolin-4-yl)-2,3,4,5-tetrahydro-1,4-benzoxazepin-7-yl]pyridine-3-sulfonamide] | 0.05 to 0.25 µM |
| Cc1nc2ccc(-c3ccc4c(c3)CN(c3nc(CNCCF)nc5c3CC(C)(C)CC5)CCO4)cc2[nH]1 [Example 586, N-({6,6-dimethyl-4-[7-(2-methyl-1H-benzimidazol-6-yl)-2,3-dihydro-1,4-benzoxazepin-4(5H)-yl]-5,6,7,8-tetrahydroquinazolin-2-yl}methyl)-2-fluoroethanamine] | ≤ 0.01 µM |
| COC(=O)Nc1nc2ccc(-c3ccc4c(c3)CN(c3ccncn3)CCO4)cc2[nH]1 [Example 107, methyl-6[(4-pyrimidin-4-yl-2,3,4,5-tetrahydro-1,4-benzoxazepin-7-yl)-1H-benzimidazol-2-yl]carbamate] | ≥ 2 µM |
| CC[C@H]1CCc2c(nc(C)nc2N2CCOc3ccc(-c4cnc5nc(C)[nH]c5c4)cc3C2)C1 [Example 487, 4-[(7S)-7-ethyl-2-methyl-5,6,7,8-tetrahydroquinazolin-4-yl]-7-(2-methyl-1H-imidazo[4,5-b]pyridin-6-yl)-2,3,4,5-tetrahydro-1,4-benzoxazepine] | 0.01 to 0.05 µM |
| COc1ccc2ncnc(N3CCOc4ccc(-c5cnc6nc(N)[nH]c6c5)cc4C3)c2c1 [Example 182, 6-{4-[6-(methyloxy)quinazolin-4-yl]-2,3,4,5-tetrahydro-1,4-benzoxazepin-7-yl}-1H-imidazo[4,5-b]pyridin-2-amine] | 0.01 to 0.05 µM |
| Cc1nc2ccc(-c3ccc4c(c3)CN(c3nc(CN5CC[C@H](F)C5)nc5c3CC(C)(C)CC5)CCO4)cc2[nH]1 [Example 463, 4-(2-{[(3S)-3-fluoropyrrolidin-1-yl]methyl}-6,6-dimethyl-5,6,7,8-tetrahydroquinazolin-4-yl)-7-(2-methyl-1H-benzimidazol-6-yl)-2,3,4,5-tetrahydro-1,4-benzoxazepine] | 0.05 to 0.25 µM |
| Cc1nc(CN(C)C)nc(N2CCOc3ccc(-c4ccc5[nH]c(C(F)F)nc5c4)cc3C2)c1C(C)C [Example 331, 1-[4-{7-[2-(difluoromethyl)-1H-benzimidazol-5-yl]-2,3-dihydro-1,4-benzoxazepin-4(5H)-yl}-6-methyl-5-(1-methylethyl)pyrimidin-2-yl]-N,N-dimethylmethanamine] | 0.05 to 0.25 µM |
| CCc1c(C)nc(CN(C)C)nc1N1CCOc2ccc(-c3ccc4[nH]c(C)nc4c3)cc2C1 [Example 349, 1-{5-ethyl-4-methyl-6-[7-(2-methyl-1H-benzimidazol-5-yl)-2,3-dihydro-1,4-benzoxazepin-4(5H)-yl]pyrimidin-2-yl}-N,N-dimethylmethanamine] | 0.25 to 1 µM |
| C[C@@H](CO)CS(=O)(=O)c1cc(-c2ccc3c(c2)CN(c2ncnc4c2CC(C)(C)CC4)CCO3)cnc1N [Example 301, (2S)-3-({2-amino-5-[4-(6,6-dimethyl-5,6,7,8-tetrahydroquinazolin-4-yl)-2,3,4,5-tetrahydro-1,4-benzoxazepin-7-yl]pyridin-3-yl}sulfonyl)-2-methylpropan-1-ol] | 0.01 to 0.05 µM |
| CC1(C)CCc2ncnc(N3CCOc4ccc(-c5cnc(N)c(S(=O)(=O)N6CCC(C)(N)C6)c5)cc4C3)c2C1 (stereo not shown) [Example 440, 3-[(3-amino-3-methylpyrrolidin-1-yl)sulfonyl]-5-[4-(6,6-dimethyl-5,6,7,8-tetrahydroquinazolin-4-yl)-2,3,4,5-tetrahydro-1,4-benzoxazepin-7-yl]pyridin-2-amine] | ≤ 0.01 µM |
| CC1(C)CCc2ncnc(N3CCOc4ccc(-c5cnc(N)c(S(=O)(=O)N6C[C@H]7C[C@@H]6CN7)c5)cc4C3)c2C1 [Example 435, 2-[(1R,4R)-2,5-diazabicyclo[2.2.1]hept-2-ylsulfonyl]-5-[4-(6,6-dimethyl-5,6,7,8-tetrahydroquinazolin-4-yl)-2,3,4,5-tetrahydro-1,4-benzoxazepin-7-yl]pyridin-2-amine] | 0.01 to 0.05 µM |
| Cc1nc(N2CCOc3ccc(-c4ccc(N)nc4)cc3C2)c2ccccc2n1 [Example 266, 5-[4-(2-methylquinazolin-4-yl)-2,3,4,5-tetrahydro-1,4-benzoxazepin-7-yl]pyridin-2-amine] | 0.25 to 1 µM |
| CCNc1nc2ncc(-c3ccc4c(c3)CN(c3nc(C)nc5c3CC(C)(C)CC5)CCO4)cc2[nH]1 [Example 290, N-ethyl-6-[4-(2,6,6-trimethyl-5,6,7,8-tetrahydroquinazolin-4-yl)-2,3,4,5-tetrahydro-1,4-benzoxazepin-7-yl]-1H-imidazo[4,5-b]pyridin-2-amine] | ≤ 0.01 µM |
| CC(C)(O)CC[S+]([O-])c1cc(-c2ccc3c(c2)CN(c2ncnc4c2CC(C)(C)CC4)CCO3)cnc1N (stereo not shown) [Example 458, 4-({2-amino-5-[4-(6,6-dimethyl-5,6,7,8-tetrahydroquinazolin-4-yl)-2,3,4,5-tetrahydro-1,4-benzoxazepin-7-yl]pyridin-3-yl}sulfinyl)-2-methylbutan-2-ol] | 0.05 to 0.25 µM |
| Cc1nc2cc(-c3ccc4c(c3)CN(c3nc(CN5CCCC5)nc(C)c3C(C)C)CCO4)ccc2[nH]1 [Example 675] | 0.05 to 0.25 µM |
| Cc1nc2ncc(-c3ccc4c(c3)CN(c3nc(CN5CC[C@@H](F)C5)nc5c3CC(C)(C)CC5)CCO4)cc2[nH]1 [Example 462] | 0.01 to 0.05 µM |
| CC[C@H]1CCc2c(ncnc2N2CCOc3ccc(-c4cnc5nc([C@H](C)N)[nH]c5c4)cc3C2)C1 [Example 298, (1S)-1-(6-{4-[(7S)-7-ethyl-5,6,7,8-tetrahydroquinazolin-4-yl]-2,3,4,5-tetrahydro-1,4-benzoxazepin-7-yl}-1H-imidazo[4,5-b]pyridin-2-yl)ethanamine] | 0.05 to 0.25 µM |
| Cc1nc2cc(-c3ccc4c(c3)CN(c3nc(CF)nc5c3CC(C)(C)CC5)CCO4)ccc2[nH]1 [Example 676, 4-[2-(fluoromethyl)-6,6-dimethyl-5,6,7,8-tetrahydroquinazolin-4-yl]-7-(2-methyl-1H-benzimidazol-5-yl)-2,3,4,5-tetrahydro-1,4-benzoxazepine] | ≤ 0.01 µM |
| CN1CC[C@@H](NS(=O)(=O)c2cc(-c3ccc4c(c3)CN(c3ncnc5c3CC(C)(C)CC5)CCO4)cnc2N)C1 [Example 385, 2-amino-5-[4-(6,6-dimethyl-5,6,7,8-tetrahydroquinazolin-4-yl)-2,3,4,5-tetrahydro-1,4-benzoxazepin-7-yl]-N-[(3R)-1-methylpyrrolidin-3-yl]pyridine-3-sulfonamide] | 0.05 to 0.25 µM |

Source: patent publication US8648066B2 (Exelixis, Inc., priority 2009, dated 2014)
